Measured values: ChEMBL document CHEMBL5233262, “Anti-inflammatory activity of naturally occuring diarylheptanoids - A review” (Bioorg Med Chem, 2021)
In brackets after ≈: the same amount, converted by molar mass. Residues, ends and D or L forms follow the SMILES beside them. *: point of attachment. Cbz = O=C(OCc1ccccc1)*

Legend:
[1] = tested on: RAW264.7; assay: Antiinflammatory activity in mouse RAW264.7 cells assessed as inhibition of LPS-induced NO production for 24 hrs by Griess assay; format: functional, cell-based; settings: RAW264.7, 24 h
[2] = tested on: RAW264.7; assay: Antiinflammatory activity in mouse RAW264.7 cells assessed as inhibition of LPS-induced NO production preincubated for 0.5 hrs followed by LPS stimulation and measured after 24 hrs by Griess reagent based analysis; format: functional, cell-based
[3] = tested on: J774.1; assay: Antiinflammatory activity in mouse J774.1 cells assessed as inhibition of LPS-induced NO production incubated for 48 hrs by Griess reagent based analysis; format: functional, cell-based
[4] = tested on: RAW264.7; assay: Antiinflammatory activity in mouse RAW264.7 cells assessed as inhibition of IFN-gamma and LPS-induced NO production incubated for 24 hrs by Griess assay; format: functional, cell-based; settings: RAW264.7, 24 h
[5] = tested on: RAW264.7; assay: Antiinflammatory activity against mouse RAW264.7 cells assessed as inhibition of IFN-gamma and LPS-induced COX2 production preincubated for 2 hrs followed by IFN-gamma and LPS stimulation and measured after 16 hrs by spectrophotometric analysis; format: functional, cell-based
[6] = tested on: RAW264.7; assay: Antiinflammatory activity in mouse RAW264.7 cells assessed as inhibition of LPS-induced NO production preincubated for 1 hrs followed by LPS stimulation and measured after 24 hrs by Griess reagent based spectrophotometrical method; format: functional, cell-based
[7] = tested on: RAW264.7; assay: Antiinflammatory activity in mouse RAW264.7 cells assessed as inhibition of LPS-induced NO production incubated for 18 hrs by Griess method; format: functional, cell-based; settings: RAW264.7, 18 h
[8] = tested on: Mus musculus; assay: Antiinflammatory activity in ICR mouse model of TPA-induced ear edema assessed as inhibition of ear inflammation at 1 mg,TOP for 30 mins followed by TPA addition and measured after 6 hrs; format: functional; settings: time 390 min, 6.5 h
[9] = tested on: Rattus norvegicus; assay: Antiinflammatory activity in rat model of carrageenan-induced paw edema assessed as reduction in paw thickness at 10 mg/kg,ip and measured after 4 hrs; format: functional; design: scale not given: the % may be the effect or the level left
[10] = Antioxidant activity assessed as […] radical scavenging activity at 50 uM; format: functional
[11] = Antiinflammatory activity in mouse N11 cells assessed as inhibition of LPS-induced TNFalpha level preincubated for 1 hrs followed by LPS stimulation and measured after 24 hrs by ELISA; format: functional, cell-based
[12] = Antiinflammatory activity in mouse N11 cells assessed as inhibition of LPS-induced NO production preincubated for 1 hrs followed by LPS stimulation and measured after 24 hrs by Griess method; format: functional, cell-based
[13] = tested on: RAW264.7; assay: Antiinflammatory activity in mouse RAW264.7 cells assessed as inhibition of LPS-induced NO production preincubated for 1 hrs followed by LPS stimulation and measured after 24 hrs by Griess method; format: functional, cell-based
[14] = tested on: RAW264.7; assay: Antiinflammatory activity in mouse RAW264.7 cells assessed as inhibition of LPS-induced TNFalpha level preincubated for 1 hrs followed by LPS stimulation and measured after 24 hrs by ELISA; format: functional, cell-based
[15] = Antioxidant activity assessed as ABTS radical scavenging activity measured after 6 mins; format: functional
[16] = Antioxidant activity assessed as DPPH radical scavenging activity incubated for 30 mins by spectrophotometric analysis; format: functional
[17] = tested on: Mus musculus; assay: Antiinflammatory activity in TPA-induced ear edema ICR mouse model assessed as inhibition of ear inflammation at 1 ug, TOP for 30 mins followed by TPA addition and measured after 6 hrs; format: functional; settings: dose 1 µg, time 390 min, 6.5 h
[18] = tested on: RAW264.7; assay: Antiinflammatory activity in mouse RAW264.7 cells assessed as inhibition of LPS-induced NO production at 30 uM preincubated for 0.5 hrs followed by LPS stimulation and measured after 24 hrs by Griess reagent based analysis; format: functional; settings: time 24.5 hrs
[19] = tested on: Zingiber officinale; assay: Inhibition of prostaglandin biosynthesis in ginger; format: functional, organism-based
[20] = Antioxidant activity assessed as nitroblue tetrazolium superoxide radical scavenging activity incubated for 10 mins by spectrophotometric analysis; format: functional
[21] = tested on: RAW264.7; assay: Antiinflammatory activity in mouse RAW264.7 cells assessed as inhibition of LPS-induced NO production preincubated for 1 hrs followed by LPS stimulation and measured after 24 hrs by Griess reagent based analysis; format: functional, cell-based
[22] = tested on: RAW264.7; assay: Antiinflammatory activity in mouse RAW264.7 cells assessed as inhibition of LPS-induced NO production incubated for 20 hrs by Griess method; format: functional, cell-based; settings: RAW264.7, 20 h

COc1cc([C@@H]2O[C@H]([C@@H](O)Cc3ccc(O)cc3)C[C@@H](O)[C@@H]2O)ccc1O
IC50 [1]: > 100 µM

O=C(CCc1ccc(O)c(O)c1)C[C@H](CCc1ccc(O)c(O)c1)O[C@H]1OC[C@H](O)[C@@H](O)[C@@H]1OC(=O)c1ccccc1
IC50 [2]: 15.4 µM

COc1cc(O)c([C@H](/C=C/C[C@H](CCc2ccc(O)cc2)OO)c2ccc(O)cc2)c(O)c1C(=O)/C=C/c1ccc(O)cc1
IC50 ([3]; Mus musculus, J774.1, 48 h): 49 µM

Oc1ccc(CC[C@H](O)CCCCc2ccc(O)c(O)c2)cc1
IC50 [2]: 22.1 µM

OC[C@@]1(O)CO[C@@H](OC[C@H]2O[C@@H](O[C@H](CCCCc3ccc(O)c(O)c3)CCc3ccc(O)c(O)c3)[C@H](O)[C@@H](O)[C@@H]2O)[C@@H]1O
IC50 [4]: 49.4 µg/mL (≈ 78.8 µM)
IC50 [5]: 34.2 µg/mL (≈ 54.6 µM)

N=C(NCCC[C@H](N)C(=O)O)N[N+](=O)[O-] [NITROARGININE]
IC50 [6]: 39.5 µM

Oc1ccc(CC[C@@H](O)CCCCc2ccc(O)c(O)c2)cc1
IC50 [7]: 13.8 µM

O=C(CCc1ccc(O)c(O)c1)C[C@H](CCc1ccc(O)c(O)c1)O[C@H]1OC[C@H](O)[C@@H](O)[C@@H]1OC(=O)/C=C/c1ccccc1
IC50 [2]: 10.5 µM

O=C1CCc2ccc(cc2)Oc2cc(ccc2O)CC[C@@H](O[C@@H]2O[C@H](CO)[C@@H](O)[C@H](O)[C@H]2O)C1
ID50 [8]: 0.49 mg

COc1c2cc(c(O[C@@H]3O[C@H](CO)[C@@H](O)[C@H](O)[C@H]3O)c1OC)CCCCC(=O)CCc1ccc(O)c-2c1
Activity [9]: 46.9%
Activity [10]: 41%

O=c1cc(-c2ccc(O)cc2)oc2cc(O)cc(O)c12 [APIGENIN]
IC50 [11]: 20 µM
IC50 [12]: 15 µM

COc1ccc(C/C=C/CCCCc2ccc(O)c(O)c2)cc1
IC50 [11]: 23.3 µM
IC50 [12]: 41.3 µM
IC50 [13]: 25.1 µM
IC50 [14]: 15.9 µM

COc1ccc(C/C=C/CCCCc2ccc(O)cc2)cc1
IC50 [11]: 29.6 µM
IC50 [12]: 63.2 µM
IC50 [13]: 47 µM
IC50 [14]: 29.6 µM

COc1cc(O)c([C@@H]2C[C@H](CCc3ccc(O)cc3)O[C@@H](c3ccc(O)cc3)C2)c(O)c1C(=O)/C=C/c1ccc(O)cc1 [EPICALYXIN F]
IC50 ([3]; Mus musculus, J774.1, 48 h): 51 µM

COc1cc(C(O)C(O)C(O)CC(O)C(O)Cc2ccc(O)cc2)ccc1O (stereo not given)
IC50 [1]: 46.7 µM

COc1c2cc(c(O)c1OC)CCCCC(=O)CCc1ccc(O)c-2c1 [MYRICANONE]
IC50 [6]: 1 µM
IC50 [15]: 19.6 µM
Activity [9]: 49.6%
Activity [10]: 41%

Oc1ccc(CCCC[C@H](O)CCc2ccc(O)cc2)cc1
IC50 [7]: > 25 µM

COc1c2cc(c(O[C@@H]3O[C@H](CO)[C@@H](O)[C@H](O)[C@H]3O)c1O)CCCCC(=O)CCc1ccc(OC(C)=O)c-2c1
Activity [9]: 46.3%
Activity [10]: 41%

COc1ccc(C/C=C/CCCCc2cccc(O)c2)cc1
IC50 [11]: 29.6 µM
IC50 [12]: 44.2 µM
IC50 [13]: 47 µM
IC50 [14]: 9.9 µM

COc1c2cc(c(O)c1OC)CCCC[C@H](O)CCc1ccc(O)c-2c1
Activity [9]: 51.5%
Activity [10]: 41%

COc1c2cc(c(O)c1OC)CCCC[C@@H](O)CCc1ccc(O)c-2c1
IC50 [6]: 7.5 µM
IC50 [15]: 22.3 µM

O=C(CCc1ccc(O)c(O)c1)C[C@H](CCc1ccc(O)cc1)O[C@@H]1OC[C@@H](O)[C@H](O)[C@H]1O
IC50 [2]: 8.1 µM

Oc1ccc(CC[C@H]2C[C@@H](O)C[C@@H](c3ccc(O)c(O)c3)O2)cc1
IC50 [1]: 17.3 µM

COc1cc(O)c([C@H](/C=C/C[C@@H](O)CCc2ccc(O)cc2)c2ccc(O)cc2)c(O)c1C(=O)[C@@H]1[C@H](/C=C/c2ccc(O)cc2)C[C@H](CCc2ccc(O)cc2)O[C@H]1c1ccc(O)cc1
IC50 ([3]; Mus musculus, J774.1, 48 h): 36 µM

OC[C@H]1O[C@@H](O[C@@H]2C[C@@H](CCc3ccc(O)cc3)O[C@@H](c3ccc(O)c(O)c3)C2)[C@H](O)[C@@H](O)[C@@H]1O
IC50 [1]: 79.9 µM

COc1cc(O)c([C@@H](/C=C/C[C@@H](O)CCc2ccc(O)cc2)c2ccc(O)cc2)c(O)c1C(=O)[C@@H]1[C@H](/C=C/c2ccc(O)cc2)C[C@H](CCc2ccc(O)cc2)O[C@H]1c1ccc(O)cc1
IC50 ([3]; Mus musculus, J774.1, 48 h): 39 µM

COc1cc(O)c([C@H](/C=C/C[C@@H](O)CCc2ccc(O)cc2)c2ccc(O)cc2)c2oc(-c3ccc(O)cc3)cc(=O)c12 (stereo in doubt; 111)
IC50 ([3]; j774.1): 95 µM

O=C(CCCCc1ccc(O)cc1)CCc1ccc(O)c(O)c1
IC50 [7]: 13.2 µM

COc1c2cc(c(O[C@@H]3O[C@H](CO)[C@@H](O)[C@H](O)[C@H]3O)c1OC)CCCC[C@H](O)CCc1ccc(O)c-2c1
Activity [9]: 47.1%
Activity [10]: 41%

COc1ccc(C/C=C/CCCCc2ccc(OC)c(OC)c2)cc1
IC50 [11]: 4.3 µM
IC50 [12]: 12.7 µM
IC50 [13]: 28.3 µM
IC50 [14]: 5.3 µM

COc1cc(O)c([C@@H](/C=C/C[C@@H](O)CCc2ccc(O)cc2)c2ccc(O)cc2)c2oc(-c3ccc(O)cc3)cc(=O)c12 (stereo in doubt; 113)
IC50 ([3]; j774.1): 83 µM

CCCOC(=O)c1cc(O)c(O)c(O)c1
Activity [10]: 97%

Oc1ccc2cc1Oc1ccc(cc1)CC[C@H](O)CCCC2 [ACEROGENIN A]
ID50 [8]: 0.32 mg

O=C(CCc1ccc(O)c(O)c1)C[C@H](CCc1ccc(O)c(O)c1)O[C@H]1OC[C@H](O)[C@@H](O)[C@@H]1OC(=O)/C=C/c1ccc(O)cc1
IC50 [2]: 22 µM

Oc1ccc(CC[C@H](O)C[C@H](O)CCc2ccc(O)c(O)c2)cc1
IC50 [1]: 27 µM

COc1cc2cc(c1O)-c1cc(ccc1O)CCC(=O)CCCC2 [MYRICANANIN C]
IC50 [6]: 13 µM
IC50 [15]: 12 µM

Oc1ccc(CCCC[C@H](CCc2ccc(O)cc2)O[C@@H]2OC[C@@H](O)[C@H](O)[C@H]2O)cc1
IC50 [2]: 63 µM

OC[C@@]1(O)CO[C@@H](OC[C@H]2O[C@@H](O[C@@H]3CCCCc4ccc(O)c(c4)Oc4ccc(cc4)CC3)[C@H](O)[C@@H](O)[C@@H]2O)[C@@H]1O
ID50 [8]: 0.81 mg

Oc1ccc(CC[C@@H]2C[C@@H](O)C[C@H](c3ccc(O)c(O)c3)O2)cc1
IC50 [1]: 27.9 µM

COc1c2cc(c(OC)c1OC)-c1cc(ccc1O)CC(O)C(=O)CCCC2 (stereo not given)
IC50 [6]: 46.9 µM
IC50 [15]: 73.7 µM
IC50 [16]: > 250 µM

Oc1ccc2cc1Oc1ccc(cc1)CCCC[C@@H](O)CC2
ID50 [8]: 0.26 mg

CO[C@@H](CCc1ccccc1)CC(=O)CCc1ccccc1
ID50 [17]: 2.7 µmol

OC[C@H]1O[C@@H](O[C@H](CCCCc2ccc(O)cc2)CCc2ccc(O)c(O)c2)[C@H](O)[C@@H](O)[C@@H]1O
inhibition at 30 µM [18]: 37%

CC(C)C[C@@H](C=O)NC(=O)[C@H](CC(C)C)NC(=O)[C@H](CC(C)C)NC(=O)OCc1ccccc1 [MG-132] (Cbz-Leu-Leu-Leu-aldehyde)
IC50 [7]: 0.1 µM

CO[C@@H](CCc1ccc(O)cc1)CC(=O)CCc1ccc(O)cc1
IC50 [2]: 15.2 µM

COc1cc(/C=C/C(=O)CC(=O)CCc2ccc(O)c(OC)c2)ccc1O
IC50 ([3]; Mus musculus, J774.1, 48 h): 181 µM

CCC(C)C(=O)O[C@@H]1[C@@H](O[C@@H](CCc2ccc(O)c(O)c2)CC(=O)CCc2ccc(O)c(O)c2)OC[C@H](O)[C@H]1O (stereo not given in full)
IC50 [2]: 30 µM

COc1cc(CCC(=O)CC(=O)CCc2ccccc2)ccc1O
IC50 [19]: 4.4 µM

Oc1ccc(CCCC[C@@H](O)CCc2ccc(O)c(O)c2)cc1O
IC50 [20]: 11.6 µM
IC50 [2]: 20 µM
IC50 [4]: 28.4 µg/mL (≈ 85.4 µM)
IC50 [21]: 10.2 µM
IC50 [22]: 5.2 µM
IC50 [16]: 23.3 µM
IC50 [5]: 45.3 µg/mL (≈ 136 µM)
